Assay results from US10131702B2, “Glucagon-GLP-1-GIP triple agonist compounds” (priority 2013, dated 2018).
Like-named read-outs stand apart in the source and are kept apart here. Numbered stars: 1 amine (or outer) side, 2 acyl side, 3 side chain; on linkers, the order of the positions; unused ones are H or OH. Square brackets hold non-standard residues; d marks the D form. Side chains are listed from the residue outwards. Peptide text beside a SMILES is read from it. * marks the point of attachment. C18 diacid = O=C(O)CCCCCCCCCCCCCCCCC(=O)*; γGlu = O=C(O)[C@H](CCC(=O)[*:2])N[*:1]; Stearoyl = CCCCCCCCCCCCCCCCCC(=O)*; AEEA = NCCOCCOCC(=O)O; Aib = CC(C)(N)C(=O)O

What was measured:
Type in all cases: cell-based
human GIP R = target: T1, human GIP R (Homo sapiens, UniProt P48546); test: cAMP induction in HEK293 cells expressing human GIP R (AlphaScreen cAMP kit)
T1 construct: expressed in transfected cells
T1 sequence (P48546 22-466): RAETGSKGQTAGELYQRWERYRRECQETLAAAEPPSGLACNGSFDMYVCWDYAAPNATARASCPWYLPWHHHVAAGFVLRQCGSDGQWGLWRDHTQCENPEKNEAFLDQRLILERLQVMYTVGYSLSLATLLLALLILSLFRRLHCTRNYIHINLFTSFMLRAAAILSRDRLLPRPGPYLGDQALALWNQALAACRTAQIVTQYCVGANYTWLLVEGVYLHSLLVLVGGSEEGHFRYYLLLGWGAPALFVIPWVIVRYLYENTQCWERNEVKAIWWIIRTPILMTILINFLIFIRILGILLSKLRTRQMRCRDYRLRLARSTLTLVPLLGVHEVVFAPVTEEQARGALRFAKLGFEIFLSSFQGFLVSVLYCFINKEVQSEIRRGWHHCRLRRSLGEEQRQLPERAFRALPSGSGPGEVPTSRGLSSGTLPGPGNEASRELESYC

human GLP-1 R = target: T2, human GLP-1 R (Homo sapiens, UniProt P43220); test: cAMP induction in HEK293 cells expressing human GLP-1 R (AlphaScreen cAMP kit); conditions: average EC50, cAMP, HEK293 cells expressing human GLP-1 R, read-out: GLP1 R (EC50 in nM)
T2 construct: expressed in transfected cells
T2 sequence (P43220 24-463): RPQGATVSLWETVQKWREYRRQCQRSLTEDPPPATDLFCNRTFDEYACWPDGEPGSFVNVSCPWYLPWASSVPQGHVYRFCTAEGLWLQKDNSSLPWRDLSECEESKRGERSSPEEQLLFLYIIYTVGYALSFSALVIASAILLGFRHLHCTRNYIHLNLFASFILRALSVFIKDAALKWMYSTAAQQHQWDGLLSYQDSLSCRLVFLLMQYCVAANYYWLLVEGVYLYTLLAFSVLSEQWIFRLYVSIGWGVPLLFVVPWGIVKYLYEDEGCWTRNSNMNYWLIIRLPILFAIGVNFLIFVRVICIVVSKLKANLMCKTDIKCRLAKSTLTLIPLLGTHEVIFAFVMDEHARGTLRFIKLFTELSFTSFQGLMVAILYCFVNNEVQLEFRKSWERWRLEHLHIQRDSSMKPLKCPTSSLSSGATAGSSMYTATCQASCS
Experimental: (§1) Briefly, HEK293 cells expressing the human GIP R, GLP-1 R or GCG R (stable cell lines generated through transfection of the cDNA for human GIP R, GLP-1 R or GCG R and selection of stable clones) were seeded at 30,000 cells/well in 96-well microtiter plates coated with 0.01% poly-L-lysine, and grown for 1 day in culture in 200 μl growth medium (DMEM, 10% FCS, Penicillin (100 IU/ml), Streptomycin (100 μg/ml)). On the day of analysis, growth medium was removed and the cells were washed once with 150 μl Tyrode's buffer (Tyrode's Salts (9.6 g/l), 10 mM HEPES, pH 7.4). […] The Assay buffer was removed and cells are lysed in 80 μl Lysis buffer (0.1% w/v BSA, 5 mM HEPES, 0.3% v/v Tween-20) per well. From each well 10 μl of lysed cells were transferred to a 384-well plate and mixed with 15 μl bead-mix (1 Unit/15 μl anti-cAMP Acceptor Beads, 1 Unit/15 μl Donor Beads, and 1 Unit/15 μl Biotinylated cAMP in Assay Buffer). The plates were mixed and incubated in the dark for an hour at room temperature before measuring using an Envision™ plate reader (Perkin-Elmer).
(§2) The resulting cAMP curves were plotted as absolute cAMP concentrations (nM) over log (test compound concentration) and analyzed using the curve fitting program XLfit.
(§3) Parameters calculated to describe both the potency as well as the agonistic activity of each test compound on the receptors were:
(§4) EC50, a concentration resulting in a half-maximal elevation of cAMP levels, reflecting the potency of the test compound.

human GCG R = target: T3, human GCG R (Homo sapiens, UniProt P47871); test: cAMP induction in HEK293 cells expressing human GCG R (AlphaScreen cAMP kit)
T3 construct: expressed in transfected cells
T3 sequence (P47871 26-477): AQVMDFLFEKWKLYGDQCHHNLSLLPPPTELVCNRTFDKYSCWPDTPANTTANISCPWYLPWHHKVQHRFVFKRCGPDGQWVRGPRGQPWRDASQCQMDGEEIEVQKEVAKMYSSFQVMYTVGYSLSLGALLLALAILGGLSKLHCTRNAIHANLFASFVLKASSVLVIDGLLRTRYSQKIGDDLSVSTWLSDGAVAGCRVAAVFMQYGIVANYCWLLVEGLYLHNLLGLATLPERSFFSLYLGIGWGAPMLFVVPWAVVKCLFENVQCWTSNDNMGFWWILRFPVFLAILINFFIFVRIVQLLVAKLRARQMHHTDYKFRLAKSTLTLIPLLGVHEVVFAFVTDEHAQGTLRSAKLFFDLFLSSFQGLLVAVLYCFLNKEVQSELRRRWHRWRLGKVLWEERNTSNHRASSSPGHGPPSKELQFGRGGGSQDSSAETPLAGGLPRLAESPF
Experimental: as §1, §2, §3, §4

[1] = Table 2b (most comprehensive data), average EC50, cAMP, read-out: GIP R (EC50 in nM)
[2] = Table 2b (most comprehensive data)
[3] = Table 2b (most comprehensive data), average EC50, cAMP, HEK293 cells expressing human GCG R, read-out: GCG R (EC50 in nM)
[4] = GIP R (EC50 in nM), Table 2, average EC50, cAMP
[5] = GIP R (EC50 in nM), Table 2b (most comprehensive data), average EC50, cAMP

Row | SMILES | EC50 (human GIP R; [1]) [nM] | EC50 (human GLP-1 R; [2]) [nM] | EC50 (human GCG R; [3]) [nM] | EC50 (human GIP R; [4]) [nM] | EC50 (human GIP R; [5]) [nM] | EC50 (human GLP-1 R; Table 2) [nM] | EC50 (human GCG R) [nM]
1 | CC[C@H](C)[C@H](NC(=O)[C@H](CO)NC(=O)[C@H](Cc1ccc(O)cc1)NC(=O)[C@H](CC(=O)O)NC(=O)[C@H](CO)NC(=O)[C@@H](NC(=O)[C@H](Cc1ccccc1)NC(=O)[C@@H](NC(=O)CNC(=O)[C@H](CCC(N)=O)NC(=O)C(C)(C)NC(=O)[C@@H](N)Cc1ccc(O)cc1)[C@@H](C)O)[C@@H](C)O)C(=O)N[C@@H](Cc1ccc(O)cc1)C(=O)N[C@@H](CC(C)C)C(=O)N[C@@H](CCC(=O)O)C(=O)N[C@@H](CCCCN)C(=O)N[C@@H](CCCCNC(=O)COCCOCCNC(=O)COCCOCCNC(=O)CC[C@H](NC(=O)CCCCCCCCCCCCCCCCC(=O)O)C(=O)O)C(=O)N[C@@H](C)C(=O)N[C@@H](CCC(N)=O)C(=O)N[C@@H](CCCNC(=N)N)C(=O)N[C@@H](C)C(=O)N[C@@H](Cc1ccccc1)C(=O)N[C@H](C(=O)N[C@@H](CCC(=O)O)C(=O)N[C@@H](Cc1c[nH]c2ccccc12)C(=O)N[C@@H](CC(C)C)C(=O)N[C@@H](CC(C)C)C(=O)N[C@@H](CCCNC(=N)N)C(=O)N[C@@H](C)C(N)=O)C(C)C [Compound 51] (H-Y[Aib]QGTFTSDYSIYLEKK([AEEA-AEEA-γGlu-C18 diacid])AQRAFVEWLLRA-NH2) | 0.033 | 0.026 | 1.4 | – | – | – | –
2 | CC[C@H](C)[C@H](NC(=O)[C@H](CO)NC(=O)[C@H](Cc1ccc(O)cc1)NC(=O)[C@H](CC(=O)O)NC(=O)[C@H](CO)NC(=O)[C@@H](NC(=O)[C@H](Cc1ccccc1)NC(=O)[C@@H](NC(=O)CNC(=O)[C@H](CCC(N)=O)NC(=O)C(C)(C)NC(=O)[C@@H](N)Cc1ccc(O)cc1)[C@@H](C)O)[C@@H](C)O)C(=O)N[C@@H](Cc1ccc(O)cc1)C(=O)N[C@@H](CC(C)C)C(=O)N[C@@H](CC(=O)O)C(=O)N[C@@H](CO)C(=O)N[C@@H](CCCCN)C(=O)N[C@@H](C)C(=O)N[C@@H](C)C(=O)N[C@@H](Cc1c[nH]cn1)C(=O)N[C@@H](CC(=O)O)C(=O)N[C@@H](Cc1ccccc1)C(=O)N[C@H](C(=O)N[C@@H](CCC(=O)O)C(=O)N[C@@H](Cc1c[nH]c2ccccc12)C(=O)N[C@@H](CC(C)C)C(=O)N[C@@H](CC(C)C)C(=O)N[C@@H](CO)C(=O)N[C@@H](C)C(N)=O)C(C)C [Compound 5] (HELM PEPTIDE1{Y.[Aib].Q.G.T.F.T.S.D.Y.S.I.Y.L.D.S.K.A.A.H.D.F.V.E.W.L.L.S.A.[am]}$$$$V2.0) | – | – | – | 0.17 | 0.009 | 0.0092 | 0.065
3 | CCCCCCCCCCCCCCCCCC(=O)N[C@@H](CCC(=O)NCCOCCOCC(=O)NCCOCCOCC(=O)NCCCC[C@H](NC(=O)[C@H](CCCCN)NC(=O)[C@H](CCC(=O)O)NC(=O)[C@H](CC(C)C)NC(=O)[C@H](C)NC(=O)[C@@H](NC(=O)[C@H](CO)NC(=O)[C@H](CC(C)C)NC(=O)[C@H](CC(=O)O)NC(=O)[C@H](CO)NC(=O)[C@@H](NC(=O)[C@H](Cc1ccccc1)NC(=O)[C@@H](NC(=O)CNC(=O)[C@H](CCC(N)=O)NC(=O)C(C)(C)NC(=O)[C@@H](N)Cc1ccc(O)cc1)[C@@H](C)O)[C@@H](C)O)[C@@H](C)CC)C(=O)N[C@@H](C)C(=O)N[C@@H](CCC(N)=O)C(=O)N[C@@H](CCCNC(=N)N)C(=O)N[C@@H](C)C(=O)N[C@@H](Cc1ccccc1)C(=O)N[C@H](C(=O)N[C@@H](CCC(=O)O)C(=O)N[C@@H](Cc1c[nH]c2ccccc12)C(=O)N[C@@H](CC(C)C)C(=O)N[C@@H](CC(C)C)C(=O)N[C@@H](C)C(=O)N[C@@H](CCC(N)=O)C(=O)N[C@@H](CCCCN)C(N)=O)C(C)C)C(=O)O [Compound 48] (H-Y[Aib]QGTFTSDLSIALEKK([AEEA-AEEA-γGlu-Stearoyl])AQRAFVEWLLAQK-NH2) | 0.013 | 0.013 | 0.19 | – | – | – | –
4 | CC[C@H](C)[C@H](NC(=O)[C@H](CO)NC(=O)[C@H](Cc1ccc(O)cc1)NC(=O)[C@H](CC(=O)O)NC(=O)[C@H](CO)NC(=O)[C@@H](NC(=O)[C@H](Cc1ccccc1)NC(=O)[C@@H](NC(=O)CNC(=O)[C@H](CCC(N)=O)NC(=O)C(C)(C)NC(=O)[C@@H](N)Cc1ccc(O)cc1)[C@@H](C)O)[C@@H](C)O)C(=O)N[C@@H](Cc1ccc(O)cc1)C(=O)N[C@@H](CC(C)C)C(=O)N[C@@H](CC(=O)O)C(=O)N[C@@H](CCCCN)C(=O)N[C@@H](CCCCNC(=O)COCCOCCNC(=O)COCCOCCNC(=O)CC[C@H](NC(=O)CCCCCCCCCCCCCCCCC(=O)O)C(=O)O)C(=O)N[C@@H](C)C(=O)N[C@@H](CCC(N)=O)C(=O)N[C@@H](CCCNC(=N)N)C(=O)N[C@@H](C)C(=O)N[C@@H](Cc1ccccc1)C(=O)N[C@H](C(=O)N[C@@H](CCC(=O)O)C(=O)N[C@@H](Cc1c[nH]c2ccccc12)C(=O)N[C@@H](CC(C)C)C(=O)N[C@@H](CC(C)C)C(=O)N[C@@H](C)C(=O)N[C@@H](CCC(N)=O)C(=O)NCC(=O)N1CCC[C@H]1C(=O)N[C@@H](CO)C(=O)N[C@@H](CO)C(=O)NCC(=O)N[C@@H](C)C(=O)N1CCC[C@H]1C(=O)N1CCC[C@H]1C(=O)N1CCC[C@H]1C(=O)N[C@@H](CO)C(N)=O)C(C)C [Compound 33] (H-Y[Aib]QGTFTSDYSIYLDKK([AEEA-AEEA-γGlu-C18 diacid])AQRAFVEWLLAQGPSSGAPPPS-NH2) | 0.009 | 0.114 | 0.58 | – | – | – | –
5 | CC[C@H](C)[C@H](NC(=O)[C@H](CO)NC(=O)[C@H](Cc1ccc(O)cc1)NC(=O)[C@H](CC(=O)O)NC(=O)[C@H](CO)NC(=O)[C@@H](NC(=O)[C@H](Cc1ccccc1)NC(=O)[C@@H](NC(=O)CNC(=O)[C@H](CCC(N)=O)NC(=O)C(C)(C)NC(=O)[C@@H](N)Cc1ccc(O)cc1)[C@@H](C)O)[C@@H](C)O)C(=O)N[C@@H](Cc1ccc(O)cc1)C(=O)N[C@@H](CC(C)C)C(=O)N[C@@H](CCC(=O)O)C(=O)N[C@@H](CO)C(=O)N[C@@H](CCCCN)C(=O)N[C@@H](C)C(=O)N[C@@H](C)C(=O)N[C@@H](Cc1c[nH]cn1)C(=O)N[C@@H](CC(=O)O)C(=O)N[C@@H](Cc1ccccc1)C(=O)N[C@H](C(=O)N[C@@H](CCC(=O)O)C(=O)N[C@@H](Cc1c[nH]c2ccccc12)C(=O)N[C@@H](CC(C)C)C(=O)N[C@@H](CC(C)C)C(=O)N[C@@H](CO)C(=O)N[C@@H](C)C(N)=O)C(C)C [Compound 18] (HELM PEPTIDE1{Y.[Aib].Q.G.T.F.T.S.D.Y.S.I.Y.L.E.S.K.A.A.H.D.F.V.E.W.L.L.S.A.[am]}$$$$V2.0) | – | 0.15 | – | 0.07 | – | 0.021 | 0.15
6 | CC[C@H](C)[C@H](NC(=O)[C@H](CO)NC(=O)[C@H](Cc1ccc(O)cc1)NC(=O)[C@H](CC(=O)O)NC(=O)[C@H](CO)NC(=O)[C@@H](NC(=O)[C@H](Cc1ccccc1)NC(=O)[C@@H](NC(=O)CNC(=O)[C@H](CCC(N)=O)NC(=O)C(C)(C)NC(=O)[C@@H](N)Cc1ccc(O)cc1)[C@@H](C)O)[C@@H](C)O)C(=O)N[C@@H](Cc1ccc(O)cc1)C(=O)N[C@@H](CC(C)C)C(=O)N[C@@H](CC(=O)O)C(=O)N[C@@H](CCCCN)C(=O)N[C@@H](CCCCN)C(=O)N[C@@H](C)C(=O)N[C@@H](C)C(=O)N[C@@H](Cc1c[nH]cn1)C(=O)N[C@@H](CC(=O)O)C(=O)N[C@@H](Cc1ccccc1)C(=O)N[C@H](C(=O)N[C@@H](CCC(=O)O)C(=O)N[C@@H](Cc1c[nH]c2ccccc12)C(=O)N[C@@H](CC(C)C)C(=O)N[C@@H](CC(C)C)C(=O)N[C@@H](CO)C(=O)N[C@@H](C)C(N)=O)C(C)C [Compound 19] (HELM PEPTIDE1{Y.[Aib].Q.G.T.F.T.S.D.Y.S.I.Y.L.D.K.K.A.A.H.D.F.V.E.W.L.L.S.A.[am]}$$$$V2.0) | – | 0.024 | – | 0.032 | 0.013 | 0.013 | 0.024
7 | CCCCCCCCCCCCCCCCCC(=O)N[C@@H](CCC(=O)NCCOCCOCC(=O)NCCOCCOCC(=O)NCCCC[C@H](NC(=O)[C@H](CCCCN)NC(=O)[C@H](CC(=O)O)NC(=O)[C@H](CC(C)C)NC(=O)[C@H](Cc1ccc(O)cc1)NC(=O)[C@@H](NC(=O)[C@H](CO)NC(=O)[C@H](Cc1ccc(O)cc1)NC(=O)[C@H](CC(=O)O)NC(=O)[C@H](CO)NC(=O)[C@@H](NC(=O)[C@H](Cc1ccccc1)NC(=O)[C@@H](NC(=O)CNC(=O)[C@H](CCC(N)=O)NC(=O)C(C)(C)NC(=O)[C@@H](N)Cc1ccc(O)cc1)[C@@H](C)O)[C@@H](C)O)[C@@H](C)CC)C(=O)N[C@@H](C)C(=O)N[C@@H](CCC(N)=O)C(=O)N[C@@H](CCCNC(=N)N)C(=O)N[C@@H](C)C(=O)N[C@@H](Cc1ccccc1)C(=O)N[C@H](C(=O)N[C@@H](CCC(=O)O)C(=O)N[C@@H](Cc1c[nH]c2ccccc12)C(=O)N[C@@H](CC(C)C)C(=O)N[C@@H](CC(C)C)C(=O)N[C@@H](C)C(=O)N[C@@H](CCC(N)=O)C(=O)NCC(=O)N1CCC[C@H]1C(=O)N[C@@H](CO)C(=O)N[C@@H](CO)C(=O)NCC(=O)N[C@@H](C)C(=O)N1CCC[C@H]1C(=O)N1CCC[C@H]1C(=O)N1CCC[C@H]1C(=O)N[C@@H](CO)C(N)=O)C(C)C)C(=O)O [Compound 35] (H-Y[Aib]QGTFTSDYSIYLDKK([AEEA-AEEA-γGlu-Stearoyl])AQRAFVEWLLAQGPSSGAPPPS-NH2) | 0.012 | 1.85 | 0.011 | – | – | – | –
